Tested on: KRAS-mutant PDC multicell tumor spheroid viability
Assay: Anticancer human tumor 521955-158-R2-J5-PDC patient-derived pancreatic carcinoma cell line growth inhibition [KRAS2]
Conditions: for IC50: curve of first compound; for viability, T/C: stronger effect = lower value
In short: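 Combination screen of spheroid viability in tumor-cell co-cultures with endothelial (HUVEC) and mesenchymal stem cell stroma. Each agent was tested in half-log dilutions, topping at clinical Cmax or at 10 microM without a known Cmax.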

[1] = second compound 0.0316 µM, first compound 0.0316 µM
[2] = second compound 0.0316 µM, first compound 0.1 µM
[3] = second compound 0.0316 µM, first compound 0.316 µM
[4] = second compound 0.0316 µM, first compound 1 µM
[5] = second compound 0.0316 µM, first compound 3.16 µM
[6] = second compound 0.0316 µM, first compound 10 µM
[7] = second compound 0.1 µM, first compound 0.0316 µM
[8] = second compound 0.1 µM, first compound 0.1 µM
[9] = second compound 0.1 µM, first compound 0.316 µM
[10] = second compound 0.1 µM, first compound 1 µM
[11] = second compound 0.1 µM, first compound 3.16 µM
[12] = second compound 0.1 µM, first compound 10 µM
[13] = second compound 0.316 µM, first compound 0.0316 µM
[14] = second compound 0.316 µM, first compound 0.1 µM
[15] = second compound 0.316 µM, first compound 0.316 µM
[16] = second compound 0.316 µM, first compound 1 µM
[17] = second compound 0.316 µM, first compound 3.16 µM
[18] = second compound 0.316 µM, first compound 10 µM
[19] = second compound 1 µM, first compound 0.0316 µM
[20] = second compound 1 µM, first compound 0.1 µM
[21] = second compound 1 µM, first compound 0.316 µM
[22] = second compound 1 µM, first compound 1 µM
[23] = second compound 1 µM, first compound 3.16 µM
[24] = second compound 1 µM, first compound 10 µM
[25] = second compound 3.16 µM, first compound 0.0316 µM
[26] = second compound 3.16 µM, first compound 0.1 µM
[27] = second compound 3.16 µM, first compound 0.316 µM
[28] = second compound 3.16 µM, first compound 1 µM
[29] = second compound 3.16 µM, first compound 3.16 µM
[30] = second compound 3.16 µM, first compound 10 µM
[31] = second compound 0.0316 µM, first compound 0.00316 µM
[32] = second compound 0.0316 µM, first compound 0.01 µM
[33] = second compound 0.1 µM, first compound 0.00316 µM
[34] = second compound 0.1 µM, first compound 0.01 µM
[35] = second compound 0.316 µM, first compound 0.00316 µM
[36] = second compound 0.316 µM, first compound 0.01 µM
[37] = second compound 1 µM, first compound 0.00316 µM
[38] = second compound 1 µM, first compound 0.01 µM
[39] = second compound 3.16 µM, first compound 0.00316 µM
[40] = second compound 3.16 µM, first compound 0.01 µM
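Note: viability read after seven days of drug exposure.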

`CC(C)NCC(C(=O)N1CCN(c2ncnc3c2C(C)CC3O)CC1)c1ccc(Cl)cc1` (stereo not given) + C=CC(=O)N1CCN(c2nc(OCC3CCCN3C)nc3c2CCN(c2cccc4cccc(C)c24)C3)CC1CC#N showed an IC50 (second compound 0.0316 µM) greater than 10000 nM, an IC50 (second compound 0.1 µM) greater than 10000 nM and an IC50 (second compound 0.316 µM) greater than 10000 nM. For the same compound, the IC50 (second compound 1 µM) was greater than 10000 nM, the IC50 (second compound 3.16 µM) was less than 31.6 nM and the viability, T/C [1] was 108%. The viability, T/C [2] was 110%, the viability, T/C [3] was 84.5% and the viability, T/C [4] was 87.1%. The viability, T/C [5] was 92.3%, the viability, T/C [6] was 65.8% and the viability, T/C [7] was 103%. It also gave a viability, T/C [8] of 103%, a viability, T/C [9] of 84.5% and a viability, T/C [10] of 83.6%. For the same compound, the viability, T/C [11] was 79.6%, the viability, T/C [12] was 59.8% and the viability, T/C [13] was 97.5%. For the same compound, the viability, T/C [14] was 92.3%, the viability, T/C [15] was 76.2% and the viability, T/C [16] was 73.5%. The viability, T/C [17] was 75.4%, the viability, T/C [18] was 52.1% and the viability, T/C [19] was 81.6%. For the same compound, the viability, T/C [20] was 80.4%, the viability, T/C [21] was 65.8% and the viability, T/C [22] was 59.2%. The viability, T/C [23] was 62.3%, the viability, T/C [24] was 50.6% and the viability, T/C [25] was 12.2%. It also gave a viability, T/C [26] of 14.6%, a viability, T/C [27] of 17% and a viability, T/C [28] of 11.6%. For the same compound, the viability, T/C [29] was 3.96% and the viability, T/C [30] was 1.11%.

Compound `CC1(C)CCC(CN2CCN(c3ccc(C(=O)NS(=O)(=O)c4ccc(NCC5CCOCC5)c([N+](=O)[O-])c4)c(Oc4cnc5[nH]ccc5c4)c3)CC2)=C(c2ccc(Cl)cc2)C1` + C=CC(=O)N1CCN(c2nc(OCC3CCCN3C)nc3c2CCN(c2cccc4cccc(C)c24)C3)CC1CC#N has an IC50 (second compound 0.0316 µM) of 4890 nM, an IC50 (second compound 0.1 µM) of 4630 nM and an IC50 (second compound 0.316 µM) of 2010 nM. For the same compound, the IC50 (second compound 1 µM) was 1680 nM, the IC50 (second compound 3.16 µM) was less than 31.6 nM and the viability, T/C [1] was 108%. The viability, T/C [2] was 101%, the viability, T/C [3] was 105% and the viability, T/C [4] was 111%. The viability, T/C [5] was 77.7%, the viability, T/C [6] was 4.79% and the viability, T/C [7] was 97.7%. The viability, T/C [8] was 100%, the viability, T/C [9] was 99.9% and the viability, T/C [10] was 104%. The viability, T/C [11] was 72.9%, the viability, T/C [12] was 4.13% and the viability, T/C [13] was 88.5%. The viability, T/C [14] was 97.4%, the viability, T/C [15] was 100% and the viability, T/C [16] was 103%. For the same compound, the viability, T/C [17] was 19.3%, the viability, T/C [18] was 4.17% and the viability, T/C [19] was 85.6%. For the same compound, the viability, T/C [20] was 89.5%, the viability, T/C [21] was 84.6% and the viability, T/C [22] was 81.7%. For the same compound, the viability, T/C [23] was 11.3%, the viability, T/C [24] was 1.35% and the viability, T/C [25] was 10.6%. It also gave a viability, T/C [26] of 8.43%, a viability, T/C [27] of 5.9% and a viability, T/C [28] of 1.39%. The viability, T/C [29] was 0.22% and the viability, T/C [30] was 0.27%.

`CCN1CCN(Cc2ccc(Nc3ncc(F)c(-c4cc(F)c5nc(C)n(C(C)C)c5c4)n3)nc2)CC1` + C=CC(=O)N1CCN(c2nc(OCC3CCCN3C)nc3c2CCN(c2cccc4cccc(C)c24)C3)CC1CC#N was tested, and the IC50 (second compound 0.0316 µM) was greater than 1000 nM, the IC50 (second compound 0.1 µM) was greater than 1000 nM and the IC50 (second compound 0.316 µM) was greater than 1000 nM. It also gave an IC50 (second compound 1 µM) greater than 1000 nM, an IC50 (second compound 3.16 µM) of less than 3.16 nM and a viability, T/C [31] of 93.5%. The viability, T/C [32] was 107%, the viability, T/C [1] was 91.8% and the viability, T/C [2] was 85.9%. It also gave a viability, T/C [3] of 110%, a viability, T/C [4] of 83.6% and a viability, T/C [33] of 102%. It also gave a viability, T/C [34] of 94.2%, a viability, T/C [7] of 87.5% and a viability, T/C [8] of 95.8%. It also gave a viability, T/C [9] of 106%, a viability, T/C [10] of 84.8% and a viability, T/C [35] of 85.3%. The viability, T/C [36] was 106%, the viability, T/C [13] was 90% and the viability, T/C [14] was 72.3%. The viability, T/C [15] was 104%, the viability, T/C [16] was 90% and the viability, T/C [37] was 89.3%. It also gave a viability, T/C [38] of 78.3%, a viability, T/C [19] of 80.6% and a viability, T/C [20] of 82.5%. The viability, T/C [21] was 84.6%, the viability, T/C [22] was 81.9% and the viability, T/C [39] was 19.2%. The viability, T/C [40] was 19.5%, the viability, T/C [25] was 16% and the viability, T/C [26] was 11.1%. For the same compound, the viability, T/C [27] was 4.58% and the viability, T/C [28] was 0.34%.

With `Cn1ncnc1[C@H]1c2n[nH]c(=O)c3cc(F)cc(c23)N[C@@H]1c1ccc(F)cc1` + C=CC(=O)N1CCN(c2nc(OCC3CCCN3C)nc3c2CCN(c2cccc4cccc(C)c24)C3)CC1CC#N the IC50 (second compound 0.0316 µM) was greater than 100 nM, the IC50 (second compound 0.1 µM) was greater than 100 nM and the IC50 (second compound 0.316 µM) was greater than 100 nM. It also gave an IC50 (second compound 1 µM) greater than 100 nM, an IC50 (second compound 3.16 µM) of less than 0.316 nM and a viability, T/C (second compound 0.0316 µM, first compound 0.000316 µM) of 111%. The viability, T/C (second compound 0.0316 µM, first compound 0.001 µM) was 114%, the viability, T/C [31] was 103% and the viability, T/C [32] was 81.4%. The viability, T/C [1] was 91.6%, the viability, T/C [2] was 82.5% and the viability, T/C (second compound 0.1 µM, first compound 0.000316 µM) was 104%. The viability, T/C (second compound 0.1 µM, first compound 0.001 µM) was 96.9%, the viability, T/C [33] was 86.9% and the viability, T/C [34] was 85.5%. It also gave a viability, T/C [7] of 81.3%, a viability, T/C [8] of 77.6% and a viability, T/C (second compound 0.316 µM, first compound 0.000316 µM) of 99.6%. For the same compound, the viability, T/C (second compound 0.316 µM, first compound 0.001 µM) was 94.4%, the viability, T/C [35] was 93.9% and the viability, T/C [36] was 72.3%. The viability, T/C [13] was 75%, the viability, T/C [14] was 66.5% and the viability, T/C (second compound 1 µM, first compound 0.000316 µM) was 78.3%. It also gave a viability, T/C (second compound 1 µM, first compound 0.001 µM) of 82.7%, a viability, T/C [37] of 78.5% and a viability, T/C [38] of 69.2%. The viability, T/C [19] was 67.4%, the viability, T/C [20] was 62.7% and the viability, T/C (second compound 3.16 µM, first compound 0.000316 µM) was 15.8%. The viability, T/C (second compound 3.16 µM, first compound 0.001 µM) was 10.9%, the viability, T/C [39] was 10.7% and the viability, T/C [40] was 8.52%. For the same compound, the viability, T/C [25] was 9.22% and the viability, T/C [26] was 8.81%.

From PubChem BioAssay AID1963871 (Molecular Pharmacology Branch, DTP, NCI, 2024)
